Laboratory results: patent publication US20050187188A1, “Methods for the treatment of a traumatic central nervous system injury” (Emory University, priority 2000, published 2005)
Entries after “also recorded” stand apart in the source; their conditions may differ.

Columns and labels:
[1] = system: rats with medial frontal cortical contusions; assay: Cerebral edema (brain tissue water content) after medial frontal cortex contusion, Example 1; format: in vivo, rat; settings: 4 mg/kg in cyclodextrin, i.p. 1 h and s.c. 6 h post-injury; 2, 24 and 72 hours; compared to vehicle
Protocol: Contusions to the medical frontal cortex (MFC) using a pneumatic impactor device were generated. Animals were anesthetized by injection of Nembutal (50 mg/kg, i.p) and placed in a stereotaxic apparatus, with body core temperature being maintained with a homeothermic heating blanket system. Using aseptic techniques, a midline incision was made in the scalp, and the fascia retracted to expose the cranium. A centered, bilateral craniotomy was made 3 mm anterior to bregma using a 6 mm diameter trephan. After the removal of the bone, the tip of the impactor was moved to AP:3.0; ML:0.0, checked for adequate clearance, retracted to its elevated position and lowered 3.5 mm DV, so it penetrated the cortex 2 mm. The contusion was made at a velocity of 2.25 m/s with a brain contact time of 0.5 seconds. Following this procedure, the wound cavity was thoroughly cleaned and all bleeding stopped before the fascia and scalp, were sutured closed. In all experiments, the rats' group identity was coded with regard to surgery and treatment to prevent experimenter bias during behavioral testing and later histological examination.
These experimental solutions were then diluted 1:1 with sterile water for a final concentration of HBC of 22.5%.
Sprague-Dawley male rats, approximately 90 days of age at the time of surgery, were used. Rats were housed in individual cages, with a 12:12 light:dark cycle. Food and water were provided ad libitum throughout the experiment. Control rats received sham surgeries and the rest received medial frontal cortical contusions as described in the general methods. The sham-operated controls were given vehicle (cyclodextrin). […] Treatment began one hour after the contusion was produced. […] Subsequently, a second subcutaneous injection 6 hours post-injury for absorption that is more gradual. […]
At 2, 24, and 72 hours the rats were anesthetized, decapitated, and their brains removed quickly from the cranial cavity. […] The brain was placed on a pre-weighed dish and the total weight of the sample was measured. […]

GABA receptor = settings: independent of the benzodiazepines; cited from earlier work
sigma receptor = settings: cited from earlier work
cell death = settings: by attenuating release of inflammatory cytokines; cited from earlier work
[2] = system: rats with bilateral frontal cortical contusions; assay: Morris water maze after MFC contusion, Example 2; format: in vivo, rat; settings: 4 mg/kg
Protocol: Contusions to the MFC were carried out as described in Example 1.
(§1) These injections started at one hour post-injury with an intraperitoneal injection, and then were repeated at 6, 24, 48, 72, 96, and 120 hours post-injury with subcutaneous injections.
The Morris Water Maize (MWM) consisted of a circular tank with a diameter of 133 cm filled with opaque water (20±1° C.; non-toxic Artista™ nontoxic white tempura paint) to a depth of 64 cm (23 cm from top of tank). A platform (11 cm×11 cm) was submerged to a depth of 2 cm and placed approximately 28 cm from the wall of the pool in the center of the northeast quadrant. The position of the platform will remain constant throughout the experiment. MWM testing began seven days after surgery. Each animal was tested for a total of 10 days (2 trials per day) in two 5-day blocks. At the start of each trial, the experimenter placed a rat into the pool at one of four starting positions, and at the same time, activate the computer-interfaced camera tracking system. Each rat was allowed to swim in the pool until it reached the platform or until 90 seconds has passed. […] The performance of each rat was measured in terms of latency to platform, length of path to platform, and swim strategy, i.e., percent of total time spent in the outer versus inner annuli.

[3] = system: rats with bilateral frontal cortical contusions; assay: Histological count of ChAT positive cells in nucleus basalis magnocellularis, motor behavior and cavity size, Example 2; format: in vivo, rat; settings: 4 mg/kg
Protocol: A single asterisk (*) indicates a significant difference from sham, a double asterisk (**) indicates a significant difference from both sham and lesion controls.
as §1
To determine the relationship between neural cell numbers and behavior, the number of neurons and glia were counted to determine the correlative relationship between the survival of these cells and behavioral performance (FIG. 3).

Row | Compound | cerebral edema [1] | modulation of the GABA receptor (GABA receptor) | activity at the sigma receptor (sigma receptor) | cell death in vitro (cell death) | Morris water maze performance vs injured rats given vehicle ([2]; injections from 1 h to 120 h post-injury, last three blocks of testing, p<0.05) | performance scores on the spatial learning task vs other groups ([2]; all days of testing) | necrotic cavity size [3] | spontaneous motor behavior [3] | number of ChAT positive cells in the nucleus basalis magnocellularis ([3]; vs untreated controls)
1 | CC(=O)[C@H]1CC[C@H]2[C@@H]3CC[C@@H]4C[C@@H](O)CC[C@]4(C)[C@H]3CC[C@]12C [epipregnanolone] | intermediate between injured controls and the allopregnanolone-treated injured rats | positive modulators of the GABA receptor | antagonists at the sigma receptor |  |  |  |  |  | 
2 | CC(=O)[C@H]1CC[C@H]2[C@@H]3CC[C@H]4C[C@H](O)CC[C@]4(C)[C@H]3CC[C@]12C [allopregnanolone, allopregnan-3α, or 3β-ol-20-one] | significantly reduced cerebral edema | positive modulators of the GABA receptor | antagonists at the sigma receptor | prevent cell death in vitro | improved performance on an acquisition task; also recorded: significantly outperformed the injured rats given vehicle | better performance scores on the spatial learning task than the other groups | no differences | no differences | more remaining viable neurons in this structure than untreated controls
